In one test the test system is IKH. The class given is cell-based, canine. To be noted: for IC50: extracellular ion, read-out: IC50 for time-dependent IKH; for effect on IKH (in words): substance alone; for increase of IKH tail currents: following a pulse to −120 mV; for IKH tail current: following hyperpolarization to −120 mV; for IKH mean current density: at −100 mV; for IKH activation by carbachol after pertussis toxin pretreatment (in words): 1.5 mg l−1 PTX, 37° C., at least 9 h. On the procedure: (§1) Adult mongrel dogs of either sex (weighing about 20-35 kg) were anaesthetized with pentobarbital (30 mg kg^−1 I.V.) and artificially ventilated with room air. Hearts and adjacent lung tissue were relatively quickly excised through a left lateral thoracotomy and immersed in oxygenated Tyrode solution (composition detailed hereinbelow) at room temperature. […] A left atrial (LA) preparation with the PVs intact was perfused via the left circumflex coronary artery, and subjected to either standard fine-tipped microelectrode recording of action potentials (APs) or cardiomyocyte isolation with collagenase-containing solutions, as previously described (Ehrlich et al. 2003). Six dogs were subjected to atrial tachycardia-induced remodeling induced by 1 week of atrial pacing at about 400 beats min^−1 after ablation of the AV node, as described in Li et al. 1999. Animal care and handling procedures followed the guidelines of the Canadian Council on Animal Care.
To isolate LA and PV cardiomyocytes, the proximal circumflex artery was cannulated and the distal ends of PV myocardial sleeves (approximately 1-1.5 cm from the PV-LA junction) were marked with silk thread prior to subsequent enzyme perfusion with collagenase (100 U ml^−1, Worthington, type II), in order to facilitate localization of PV sleeves after enzymatic digestion. […] All comparisons were based on PV and LA cardiomyocytes isolated from each dog on each experimental day. After isolation, cells were stored at 4° C. and studied on the same day. For standard microelectrode experiments, intact tissue preparations including the LA and adjacent PVs were mounted in a chamber and perfused via the circumflex artery with oxygenated Krebs solution at 36±0.5° C. (see for example Kneller et al. 2002).
(§2) Currents were recorded with the whole-cell patch-clamp technique at 36±0.5° C., as described in Yue et al. 1996. All junction potentials were zeroed prior to formation of gigaohm seals. […] Capacitance was assessed using 5 mV, 10 ms hyperpolarizing steps from a holding potential (HP) of −60 mV. […] Original recordings are shown in terms of current amplitude, but mean data are presented as current density (pA pF−1) to control for variability in cell size.
(§3) Currents were recorded with hyperpolarizing and depolarizing pulses (generally 4 s duration) from a HP of −40 mV to selected test potentials (TPs). Recordings were repeated 3 times, and mean values obtained. For the determination of reversal potentials, tail currents were recorded after 1.6 s pulses to −120 mV followed by 3.2 s depolarizations to TPs between −110 and +20. All voltage protocols were delivered at 0.1 Hz.
(§4) Tyrode solution contained (mM): NaCl 136, KCl 5.4, MgCl2 1, CaCl2 1, NaH2PO4 0.33, Hepes 5 and dextrose 10 (pH 7.35 with NaOH). The cell-storage solution contained (mM): KCl 20, KH2PO4 10, dextrose 10, mannitol 40, L-glutamic acid 70, β-OH-butyric acid 10, taurine 20, EGTA 10 and 0.1% bovine serum albumin (pH 7.3, KOH). Nifedipine (5 μM) was used to suppress L-type Ca^2+ current (ICa) in all experiments. 4-Aminopyridine (4-AP, 2 mM) was added to suppress transient outward current (Ito). […] Na+ current (INa) contamination was avoided by using a HP of −40 mV for recording of hyperpolarization-induced currents and by substitution of equimolar Tris-HCl for external NaCl for tail-current recordings.

For test [1], the system named is instantaneous inward-rectifier current. As to the kind of experiment: Whole-cell patch-clamp of instantaneous inward-rectifier current in canine cardiomyocytes. The settings on record: at −120 mV, extracellular ion. The class given is cell-based. On the procedure:
as §1
To isolate LA and PV cardiomyocytes, the proximal circumflex artery was cannulated and the distal ends of PV myocardial sleeves (approximately 1-1.5 cm from the PV-LA junction) were marked with silk thread prior to subsequent enzyme perfusion with collagenase (100 U ml^−1, Worthington, type II), in order to facilitate localization of PV sleeves after enzymatic digestion. […] All comparisons were based on PV and LA cardiomyocytes isolated from each dog on each experimental day. After isolation, cells were stored at 4° C. and studied on the same day. […]
Currents were recorded with the whole-cell patch-clamp technique at 36±0.5° C., as described in Yue et al. 1996. […] Capacitance was assessed using 5 mV, 10 ms hyperpolarizing steps from a holding potential (HP) of −60 mV. […]
Currents were recorded with hyperpolarizing and depolarizing pulses (generally 4 s duration) from a HP of −40 mV to selected test potentials (TPs). […] For the determination of reversal potentials, tail currents were recorded after 1.6 s pulses to −120 mV followed by 3.2 s depolarizations to TPs between −110 and +20. […]

Another test deals with holding current. Briefly: Holding current in whole-cell patch-clamp of cardiomyocytes. In kind it is cell-based, canine. On the procedure:
as §2, §3
as §4, with “recordings. When different external K^+ concentrations were applied, the osmolarity was kept constant by proportionate reduction of NaCl content in the solution. The standard internal solution contained (mM): potassium aspartate 110, KCl 20, MgCl2 1, MgATP 5, GTP (lithium salt) 0.1, Hepes 10, sodium phosphocreatine 5 and EGTA 5.0 (pH 7.3 with KOH). In experiments with K+-free internal solution, potassium aspartate was replaced by equimolar caesium aspartate and KCl by CsCl and pH was set to 7.3 with CsOH. For standard-microelectrode experiments, a solution containing (mM): NaCl 120, KCl 4, KH2PO4 1.2, MgSO4 1.2, NaHCO3 25, CaCl2 1.25 and dextrose 5 (95% O2-5% CO2, pH 7.4) was used to perfuse the tissue.” for “recordings.”
Stock solutions of BaCl2 (1 M) and CsCl (1 M) were produced initially and used throughout the experiments. Stock solution of isoproterenol was prepared under protection from light on the day of experiments and freshly prepared ascorbic acid (100 μM) was added in order to prevent isoproterenol oxidization. Carbachol (1 μM) was dissolved in Tyrode solution, tertiapin-Q in 0.1% acetic acid. GTPS (0.1 mM) was used in place of GTP in internal solutions for some experiments. For experiments involving pertussis toxin (PTX, stock solution dissolved in distilled H2O) cells were incubated at 37° C. in 1.5 mg I-1 PTX for at least 9 h prior to experiments. Parallel controls were performed with cells from the same isolates incubated in the same fashion and the same solution, but without PTX. […] Unless otherwise specified, drugs were obtained from Sigma.
Background: The patch-clamp technique gives a direct electrical read-out from membranes.

Where two headings read alike, the source gives them in different places.

Turning to `[Ba+2].[Cl-].[Cl-]` [Ba^2+, BaCl2], the “inhibition of IKH (in words)” value in the test with IKH (1 μM, most cells) is given as “inhibited IKH appreciably”; in the test on IKH (10 μM), “full inhibition”. Further, the IC50 with IKH (at −120 mV) was 2 ± 0.3 µM; in test [1] it was 76 ± 17.9 µM.
Turning to `[Cl-].[Cs+]` [Cs^+, CsCl], the IC50 was determined as 184 ± 18.2 µM in the test on IKH (at −120 mV) and 139 ± 34.2 µM in test [1].
Consider `Nc1nc2c(ncn2[C@@H]2O[C@H](COP(=O)(O)OP(=O)(O)OP(O)(O)=S)[C@@H](O)[C@H]2O)c(=O)[nH]1` [GTPS], for which, in the test on IKH (GTPS 0.1 mM in place of GTP), the “further IKH response to carbachol with GTPS in the pipette (in words)” value is “fully prevented”. In the test with IKH (at −120 mV, GTPS in pipette, no cholinergic stimulation (regular GTP −3.8±0.6)), this compound came in with an IKH current density of −8.2±0.8 pA pF^−1. In the test on IKH, the “effect on IKH (in words)” value is recorded as “increased”.
`C[N+](C)(C)CCOC(N)=O` [carbachol]: the “average increase of IKH” value with IKH (1 μM carbachol, voltages between −120 and −90 mV, PV cells) amounted to 188±54%. The IKH current density is given as −10.0±1.2 pA pF^−1 in the test on IKH (at −120 mV, 1 μM carbachol, GTP-containing pipettes (before −6.2±1.0)); −8.3±1.1 pA pF^−1 in the test with IKH (at −120 mV, 1 μM carbachol, GTP-free pipettes (before −8.3±0.7)); −4.9±1.1 pA pF^−1 in the test on IKH (at −120 mV, 1 μM carbachol, LA cells (baseline −1.9±0.4)); −5.0±0.6 pA pF^−1 in the test with IKH (at −120 mV, 1 μM carbachol, PV cells (baseline −2.6±0.5)). For the same compound, the IKH density with IKH (at −120 mV, carbachol, cells incubated without PTX at 37° C. >9 h (before −6.2±1.8)) is recorded as −11.5±1.8 pA pF^−1; in the test on IKH (at −120 mV, carbachol, cells preincubated with PTX), −5.5±1.2 pA pF−1. In addition, the “increase of IKH tail currents” value in the test on IKH (carbachol, PTX-treated cells) is given as 127±37%; in the test with IKH (carbachol, cells incubated without PTX), 538±170%. In addition, the IKH tail current stood at 8.4±1.6 pA pF^−1 in the test with IKH (after carbachol, PTX-free conditions (before 2.1±0.7)) and 3.4±0.9 pA pF^−1 in the test on IKH (after carbachol, PTX-preincubated cells). The “effect on IKH (in words)” value in the test on IKH is “increased”.
With `CC(C)NCC(O)c1ccc(O)c(O)c1` (stereo not shown) [isoproterenol], in the test with IKH (1 μM isoproterenol, PV cell), the “time to steady-state effect on IKH” value is listed as at most 2 min. In addition, the “IKH mean current density” value with IKH (10 nM isoproterenol (control −0.9±0.1)) is listed as −1.2±0.1 pA pF^−1; in the test on IKH (100 nM isoproterenol (control −0.9±0.1)), −1.4±0.2 pA pF^−1; in the test on IKH (1000 nM isoproterenol (control −0.9±0.1)), −1.5±0.1 pA pF^−1. Further, in the test on IKH (at −120 mV, 1 μM isoproterenol in the presence of 200 nM tertiapin-Q), the mean end-pulse current was found to be 0.20±0.07 pA pF^−1. Besides, the “effect on IKH (in words)” value with IKH is recorded as “increased”. Further, the “increase of holding current” value stood at 59±14% in the test with holding current (10 nM isoproterenol), 89±33% with holding current (100 nM isoproterenol) and 144±37% in the test with holding current (1000 nM isoproterenol). For the same compound, the holding current with holding current (10 nM isoproterenol (control 44±11)) amounted to 65±14 pA pF−1; in the test with holding current (100 nM isoproterenol (control 44±11)), 70±13 pA pF−1; in the test on holding current (1000 nM isoproterenol (control 44±11)) it was 87±14 pA pF−1.
For the compound pertussis toxin, the “IKH activation by carbachol after pertussis toxin pretreatment (in words)” value is listed as “prevented” with IKH (1 μM carbachol) and “attenuated” in the test with IKH (1 μM carbachol, listed as PTX). For the same compound, the IKH density in the test on IKH (at −120 mV, cells preincubated with PTX, before carbachol) is −6.4±0.8 pA pF^−1. In addition, the IKH tail current in the test on IKH (PTX-preincubated cells, before carbachol) was 1.8±0.6 pA pF^−1.

One may read the IC50 as the concentration at which inhibition is half-maximal.

The values are drawn from US20060094003A1, “Acetylcholine-dependent current as a novel ionic target for atrial fibrillation” (priority 2004, published 2006).
